From patent US12344610B2, “APOL1 inhibitors and methods of use” (Maze Therapeutics, Inc., priority 2022, dated 2025)
Where two headings read alike, the source gives them in different places.

Tests used:
Assay type in all cases: cell-based
Conditions in all cases: geometric mean of at least 2 assay runs, † = single assay run
[1] = system: Trypanosoma brucei Lister 427 VSG221 with APOL1 G2 recombinant protein; assay: APOL1 G2 trypanosome cell rescue assay (Example B5)
In short: (§1)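 Mature APOL1 (residues 28-398, E. coli-expressed, His-tag removed by TEV) was added as a 2 μg/mL solution to T. brucei Lister 427 VSG221 in modified HMI-9 medium at 250 cells/well, with duplicate 11-point 2-fold compound dilutions (0.4% DMSO). After 20 h at 37° C, 5% CO2, viability was read by CellTiter-Glo luminescence.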

[2] = system: HEK293 cells overexpressing APOL1 G2; assay: APOL1 G2 HEK293 cell rescue assay (reversal of cell death caused by overexpression of APOL1)
In short: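 EC50 is the half-maximal effective concentration for reversing cell death driven by APOL1 G2 overexpression in HEK293 cells. Reported as geometric mean of at least 2 runs on separate days, each run averaging duplicate wells per plate; some values from a single run.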

[3] = system: Trypanosoma brucei Lister 427 VSG221 with APOL1 G1 recombinant protein; assay: APOL1 G1 trypanosome cell rescue assay (Example B5)
In short: as §1

[4] = system: Trypanosoma brucei Lister 427 VSG221 with APOL1 G0 recombinant protein; assay: APOL1 G0 trypanosome cell rescue assay (Example B5)
In short: as §1

[5] = Trypanosoma brucei, 20 h, read-out: APOL1 G2 Trypanosome Rescue EC50, Trypanosoma brucei Lister 427 VSG221 with APOL1 G2 recombinant protein, 20 hours, CellTiter-Glo
[6] = Homo sapiens, HEK293, HEK293 overexpressing APOL1 G2
[7] = Trypanosoma brucei, 20 h, read-out: APOL1 G1 Trypanosome Rescue EC50, Trypanosoma brucei Lister 427 VSG221 with APOL1 G1 recombinant protein, 20 hours, CellTiter-Glo
[8] = Trypanosoma brucei, 20 h, read-out: APOL1 G0 Trypanosome Rescue EC50, Trypanosoma brucei Lister 427 VSG221 with APOL1 G0 recombinant protein, 20 hours, CellTiter-Glo
[9] = read-out: APOL1 G1 Trypanosome Rescue EC50, Trypanosoma brucei Lister 427 VSG221 with APOL1 G1 recombinant protein, 20 hours, CellTiter-Glo
[10] = read-out: APOL1 G0 Trypanosome Rescue EC50, Trypanosoma brucei Lister 427 VSG221 with APOL1 G0 recombinant protein, 20 hours, CellTiter-Glo
[11] = read-out: APOL1 G2 Trypanosome Rescue EC50, Trypanosoma brucei Lister 427 VSG221 with APOL1 G2 recombinant protein, 20 hours, CellTiter-Glo

SMILES	EC50 [1, 5] [nM]	EC50 [2, 6] [nM]	EC50 [3, 7] [nM]	EC50 [4, 8] [nM]	EC50 [3, 9] [nM]	EC50 [4, 10] [nM]	EC50 [1, 11] [nM]	EC50 ([2]; HEK293 overexpressing APOL1 G2) [nM]
C[C@@H](COc1ccc(S(C)(=O)=O)cc1)N1CCC2(CC1)C(=O)Nc1ccc(Cl)cc12 (single isomer, unassigned) [Compound 10]	93.3	90.3	352	351	–	–	–	–
C[C@@H](COc1ccc(S(C)(=O)=O)cc1)N1CCC2(CC1)C(=O)Nc1ccccc12 (single isomer, unassigned) [Compound 12]	494	307	1950	1930	–	–	–	–
C[C@@H](CN1CCC2(CC1)C(=O)Nc1ccccc12)Oc1ccc(S(C)(=O)=O)cc1 (single isomer, unassigned) [Compound 13]	> 4000	3010	> 4000	> 4000	–	–	–	–
O=C1NCC2c3ccc(OCCN4CCC5(CC4)C(=O)Nc4ccc(Cl)cc45)cc3CCN12 (single isomer, unassigned) [Compound 116, (S) or (R)-5-chloro-1′-[2-({3-oxo-1H,2H,3H,5H,6H,10bH-imidazo[4,3-a]isoquinolin-8-yl}oxy)ethyl]-1,2-dihydrospiro[indole-3,4′-piperidin]-2-one]	69.2	81.8	–	–	209	149	–	–
O=C1NCC2c3ccc(OCCN4CCC5(CC4)C(=O)Nc4ccc(Cl)cc45)cc3CCN12 (single isomer, unassigned) [Compound 117, (R) or (S)-5-chloro-1′-[2-({3-oxo-1H,2H,3H,5H,6H,10bH-imidazo[4,3-a]isoquinolin-8-yl}oxy)ethyl]-1,2-dihydrospiro[indole-3,4′-piperidin]-2-one]	–	–	–	–	423	309	117	81.5
N#Cc1ccc2c(c1)C1(CCN(CCOc3ccc4c(c3)CCN3C(=O)NCC43)CC1)C(=O)N2 (single isomer, unassigned) [Compound 120, (R) or (S)-2-oxo-1′-[2-({3-oxo-1H,2H,3H,5H,6H,10bH-imidazo[4,3-a]isoquinolin-8-yl}oxy)ethyl]-1,2-dihydrospiro[indole-3,4′-piperidine]-5-carbonitrile]	346	–	1250	807	–	–	–	324
O=C1CCC2c3ccc(OCCN4CCC5(CC4)C(=O)Nc4ccc(Cl)cc45)cc3CCN12 (single isomer, unassigned) [Compound 122, (S) or (R)-5-chloro-1′-[2-({3-oxo-1H,2H,3H,5H,6H,10bH-pyrrolo[2,1-a]isoquinolin-8-yl}oxy)ethyl]-1,2-dihydrospiro[indole-3,4′-piperidin]-2-one]	108	87.5	337	252	–	–	–	–
O=C1CCC2c3ccc(OCCN4CCC5(CC4)C(=O)Nc4ccc(Cl)cc45)cc3CCN12 (single isomer, unassigned) [Compound 123, (R) or (S)-5-chloro-1′-[2-({3-oxo-1H,2H,3H,5H,6H,10bH-pyrrolo[2,1-a]isoquinolin-8-yl}oxy)ethyl]-1,2-dihydrospiro[indole-3,4′-piperidin]-2-one]	–	–	–	–	258	178	76.9	79.5
CC(c1ccc(OCCN2CCC3(CC2)C(=O)Nc2ccc(C#N)cc23)cc1)S(C)(=O)=O (single isomer, unassigned) [Compound 134, (S) or (R)-1′-{2-[4-(1-methanesulfonylethyl)phenoxy]ethyl}-2-oxo-1,2-dihydrospiro[indole-3,4′-piperidine]-5-carbonitrile]	277	199	991	851	–	–	–	–
CC(c1ccc(OCCN2CCC3(CC2)C(=O)Nc2ccc(C#N)cc23)cc1)S(C)(=O)=O (single isomer, unassigned) [Compound 135, (R) or (S)-1′-{2-[4-(1-methanesulfonylethyl)phenoxy]ethyl}-2-oxo-1,2-dihydrospiro[indole-3,4′-piperidine]-5-carbonitrile]	–	–	–	–	1200	1080	303	211
CC(c1c(F)cc(OCCN2CCC3(CC2)C(=O)Nc2ccc(C#N)cc23)cc1F)S(C)(=O)=O (single isomer, unassigned) [Compound 138, (S) or (R)-1′-{2-[3,5-difluoro-4-(1-methanesulfonylethyl)phenoxy]ethyl}-2-oxo-1,2-dihydrospiro[indole-3,4′-piperidine]-5-carbonitrile]	165	78.2	585	326	–	–	–	–
CC(c1c(F)cc(OCCN2CCC3(CC2)C(=O)Nc2ccc(C#N)cc23)cc1F)S(C)(=O)=O (single isomer, unassigned) [Compound 139, (R) or (S)-1′-{2-[3,5-difluoro-4-(1-methanesulfonylethyl)phenoxy]ethyl}-2-oxo-1,2-dihydrospiro[indole-3,4′-piperidine]-5-carbonitrile]	–	–	–	–	537	335	147	133
CC(c1c(F)cc(OCCN2CCC3(CC2)C(=O)Nc2ccc(Cl)cc23)cc1F)S(C)(=O)=O (single isomer, unassigned) [Compound 142, (S) or (R)-5-chloro-1′-{2-[3,5-difluoro-4-(1-methanesulfonylethyl)phenoxy]ethyl}-1,2-dihydrospiro[indole-3,4′-piperidin]-2-one]	35.3	48.3	98.3	63.5	–	–	–	–
CC(c1c(F)cc(OCCN2CCC3(CC2)C(=O)Nc2ccc(Cl)cc23)cc1F)S(C)(=O)=O (single isomer, unassigned) [Compound 143, (R) or (S)-5-chloro-1′-{2-[3,5-difluoro-4-(1-methanesulfonylethyl)phenoxy]ethyl}-1,2-dihydrospiro[indole-3,4′-piperidin]-2-one]	–	–	–	–	64.1	41.1	21.1	36.9
CN=S(C)(=O)c1ccc(OCCN2CCC3(CC2)C(=O)Nc2ccc(Cl)cc23)cc1 (single isomer, unassigned) [Compound 148, (S) or (R)-5-chloro-1′-(2-{4-[methyl(methylimino)oxo-λ^6-sulfanyl]phenoxy}ethyl)-1,2-dihydrospiro[indole-3,4′-piperidin]-2-one]	61.8	107	201	140	–	–	–	–
CN=S(C)(=O)c1ccc(OCCN2CCC3(CC2)C(=O)Nc2ccc(Cl)cc23)cc1 (single isomer, unassigned) [Compound 149, (R) or (S)-5-chloro-1′-(2-{4-[methyl(methylimino)oxo-λ^6-sulfanyl]phenoxy}ethyl)-1,2-dihydrospiro[indole-3,4′-piperidin]-2-one]	–	–	–	–	174	117	51.8	101
CN=S(C)(=O)c1ccc(OCCN2CCC3(CC2)C(=O)Nc2ccc(C#N)cc23)cc1 (single isomer, unassigned) [Compound 151, (S) or (R)-1′-(2-{4-[methyl(methylimino)oxo-λ^6-sulfanyl]phenoxy}ethyl)-2-oxo-1,2-dihydrospiro[indole-3,4′-piperidine]-5-carbonitrile]	347	397	1330	1040	–	–	–	–
CN=S(C)(=O)c1ccc(OCCN2CCC3(CC2)C(=O)Nc2ccc(C#N)cc23)cc1 (single isomer, unassigned) [Compound 152, (R) or (S)-1′-(2-{4-[methyl(methylimino)oxo-λ^6-sulfanyl]phenoxy}ethyl)-2-oxo-1,2-dihydrospiro[indole-3,4′-piperidine]-5-carbonitrile]	–	–	–	–	1530	1050	416	405
O=C1Nc2ccc(Cl)cc2C12CCN(CCOc1ccc(C3CCCS3(=O)=O)cc1)CC2 (single isomer, unassigned) [Compound 176, (S) or (R)-2-[4-(2-{5-chloro-2-oxo-1,2-dihydrospiro[indole-3,4′-piperidin]-1′-yl}ethoxy)phenyl]-1λ^6-thiolane-1,1-dione]	44.6	46.9	177	–	–	120	–	–
O=C1Nc2ccc(Cl)cc2C12CCN(CCOc1ccc(C3CCCS3(=O)=O)cc1)CC2 (single isomer, unassigned) [Compound 177, (R) or (S)-2-[4-(2-{5-chloro-2-oxo-1,2-dihydrospiro[indole-3,4′-piperidin]-1′-yl}ethoxy)phenyl]-1λ^6-thiolane-1,1-dione]	–	–	–	–	314	260	84.4	78.2
